Laboratory results published in patent publication US20080300237A1, “Pharmaceutically Active Diazepanes” (priority 2005, published 2008).

Molecular target: T1, human LFA-1 (Homo sapiens, UniProt P20701)
T1 construct: endogenous in cells; host or cells: JY cells (human lymphoblastoid B cell line); The ICAM-1 fusion partner is made in the baculovirus system
Assay: In vitro cell free assay: binding of soluble human ICAM-1 to immobilized human LFA-1
Conditions: immobilized human LFA-1, biotinylated recombinant ICAM-1, read-out: IC50, inhibition of adhesion of LFA-1 to ICAM-1
Method: A. In Vitro TEST SYSTEM (Cell Free Assay)
The assay determines the binding of soluble human ICAM-1 to immobilized human LFA-1. LFA-1 is purified from JY cells, a human lymphoblastoid B cell-line, by immunoaffinity chromatography analogously as described by Dustin et al., J. Immunol. 148, 2654-2663, 1992. ICAM-1 mouse Cκ fusion protein (ICAM-1) is produced using the baculovirus system as described by Weitz-Schmidt et al., Anal. Biochem. 238, 184-190, 1996.
Purified LFA-1 is diluted 1:20 in phosphate buffered saline (PBS) containing 2 mM MgCl2, pH 7.4 and coated onto microtiter plates (Nunc) at 37° for 3 hours. Plates are blocked with 1% heat-treated bovine serum albumin in PBS for 2 hours at 37° followed by a washing step using PBS, 2 mM MgCl2, 1% fetal calf serum, pH 7.4 (assay buffer). Compounds of the present invention (10 mM solution in DMSO) are diluted in assay buffer and added to the plates. Biotinylated recombinant ICAM-1 in assay buffer (6 μg/ml) is added and allowed to bind at 37° for one hour. After incubation, wells are washed with assay buffer. Streptavidinperoxidase diluted 1:5000 in assay buffer is added and incubated for 45 min at 37°. […] The reaction is stopped after 20 minutes and bound ICAM-1 is determined by measuring the optical density at 405 nm in a microplate reader.

T1 sequence (P20701 26-1170): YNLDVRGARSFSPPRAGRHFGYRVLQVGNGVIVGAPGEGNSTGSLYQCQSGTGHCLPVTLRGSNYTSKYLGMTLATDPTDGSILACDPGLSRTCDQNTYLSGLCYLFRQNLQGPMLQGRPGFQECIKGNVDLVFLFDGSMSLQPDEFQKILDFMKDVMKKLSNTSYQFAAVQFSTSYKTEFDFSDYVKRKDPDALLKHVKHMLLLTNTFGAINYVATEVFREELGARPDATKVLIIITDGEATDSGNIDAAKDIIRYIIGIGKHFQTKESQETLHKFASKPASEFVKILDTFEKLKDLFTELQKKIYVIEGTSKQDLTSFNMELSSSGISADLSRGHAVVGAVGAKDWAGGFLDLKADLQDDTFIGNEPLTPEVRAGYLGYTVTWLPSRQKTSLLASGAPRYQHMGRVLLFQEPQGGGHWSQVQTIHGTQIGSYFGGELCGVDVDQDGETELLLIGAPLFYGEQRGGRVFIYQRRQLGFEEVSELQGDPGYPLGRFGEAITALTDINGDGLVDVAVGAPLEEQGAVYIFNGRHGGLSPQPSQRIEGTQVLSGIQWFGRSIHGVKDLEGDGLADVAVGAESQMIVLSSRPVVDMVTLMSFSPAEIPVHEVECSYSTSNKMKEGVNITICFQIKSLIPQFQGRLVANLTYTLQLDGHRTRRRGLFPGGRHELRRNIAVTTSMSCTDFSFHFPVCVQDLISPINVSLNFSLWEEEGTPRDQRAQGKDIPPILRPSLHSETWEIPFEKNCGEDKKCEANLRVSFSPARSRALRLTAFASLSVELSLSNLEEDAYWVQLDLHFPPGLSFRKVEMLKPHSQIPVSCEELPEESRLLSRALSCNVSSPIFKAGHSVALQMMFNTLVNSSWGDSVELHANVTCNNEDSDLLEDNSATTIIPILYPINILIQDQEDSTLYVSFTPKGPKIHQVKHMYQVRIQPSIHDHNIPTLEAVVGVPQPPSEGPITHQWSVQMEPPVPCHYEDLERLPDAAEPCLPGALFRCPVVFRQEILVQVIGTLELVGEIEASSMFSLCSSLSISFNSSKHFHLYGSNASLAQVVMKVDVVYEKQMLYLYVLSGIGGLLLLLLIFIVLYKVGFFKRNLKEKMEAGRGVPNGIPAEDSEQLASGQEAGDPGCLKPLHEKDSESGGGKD
T1 sequence (P05107 23-769 partner): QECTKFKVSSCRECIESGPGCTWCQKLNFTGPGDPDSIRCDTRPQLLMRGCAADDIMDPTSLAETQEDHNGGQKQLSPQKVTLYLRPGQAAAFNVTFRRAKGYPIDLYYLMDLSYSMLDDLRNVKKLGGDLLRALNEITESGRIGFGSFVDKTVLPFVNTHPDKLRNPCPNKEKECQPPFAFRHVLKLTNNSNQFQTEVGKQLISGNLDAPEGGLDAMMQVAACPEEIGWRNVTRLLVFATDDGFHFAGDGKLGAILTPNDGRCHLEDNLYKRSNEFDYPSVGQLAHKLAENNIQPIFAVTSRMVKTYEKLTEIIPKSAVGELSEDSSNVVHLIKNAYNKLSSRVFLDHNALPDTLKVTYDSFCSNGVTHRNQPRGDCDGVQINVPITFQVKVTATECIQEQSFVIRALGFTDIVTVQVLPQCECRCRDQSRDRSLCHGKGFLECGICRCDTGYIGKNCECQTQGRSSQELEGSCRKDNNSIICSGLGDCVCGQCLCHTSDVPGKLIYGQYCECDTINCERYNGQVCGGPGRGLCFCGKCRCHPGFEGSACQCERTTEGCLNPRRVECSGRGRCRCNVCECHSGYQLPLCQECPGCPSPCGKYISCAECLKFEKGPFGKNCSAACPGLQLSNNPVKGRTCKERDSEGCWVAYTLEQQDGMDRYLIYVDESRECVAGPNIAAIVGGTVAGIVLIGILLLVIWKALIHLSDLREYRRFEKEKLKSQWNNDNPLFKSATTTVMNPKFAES

Structure (SMILES) | IC50 [nM]
C[C@@H]1CCN([C@H](Cc2cccc3ccccc23)C(N)=O)C(=O)[C@H](c2cccc(Cl)c2)N1C(=O)CNC(=O)[C@@H]1CCCN1 [Example 14, (S)-Pyrrolidine-2-carboxylic acid {2-[(2S,7R)-4-((R)-1-carbamoyl-2-naphthalen-1-yl-ethyl)-2-(3-chloro-phenyl)-7-methyl-3-oxo-[1,4]diazepan-1-yl]-2-oxo-ethyl}-amide] | 90
C[C@@H]1CCN([C@H](Cc2cccc3ccccc23)C(N)=O)C(=O)[C@H](c2cccc(Cl)c2)N1C(=O)CNC(=O)c1ccccc1 [Example 13, N-{2-[(2S,7R)-4-((R)-1-Carbamoyl-2-naphthalen-1-yl-ethyl)-2-(3-chloro-phenyl)-7-methyl-3-oxo-[1,4]diazepan-1-yl]-2-oxo-ethyl}-benzamide] | 430
